According to PubChem BioAssay AID1259408 (Genetic Toxicology Data Bank (GENE-TOX), 2018):
Calls of active or inactive are those of the source. How the calls were made is not given here.

Test system: GENE-TOX genotoxicity assays, various organisms and cells
Test: GENE-TOX mutagenicity studies
Conditions: for call: Assay Type: In vivo carcinogenicity studies
[1] = Species/Cell Type: Mammalian polychromatic erythrocytes, Assay Type: Micronucleus test, chromosome aberrations, Assay Code: MNT+, Evaluation Type: Evaluation B (Post-1980)
[2] = Species/Cell Type: Nonhuman, Assay Type: Sister-chromatid exchange (SCE) in vitro, Assay Code: SC2+D, Dose Response: With dose response, Evaluation Type: Evaluation B (Post-1980)
[3] = Species/Cell Type: Saccharomyces cerevisiae, Assay Type: Mitotic recombination or gene conversion, Assay Code: YEC+, Evaluation Type: Evaluation A (Pre-1980)
[4] = Species/Cell Type: Salmonella typhimurium (one or more of the five standard strains: TA98, TA100, TA1535, TA1537, and TA1538), Assay Type: Histidine reverse gene mutation, Ames assay, Assay Code: SAL+, Evaluation Type: Evaluation A (Pre-1980)
[5] = Species/Cell Type: Drosophila melanogaster, Assay Type: Sex-linked recessive lethal gene mutation, Assay Code: SRLT, Evaluation Type: Evaluation A (Pre-1980)

## O=C1[C@H]2CC=CC[C@H]2C(=O)N1SC(Cl)(Cl)Cl
Species/Cell Type: Aspergillus nidulans, Assay Type: Aneuploidy, chromosome aberrations, Assay Code: ASN-, Evaluation Type: Evaluation A (Pre-1980)
  mutagenic call: inactive; negative
Species/Cell Type: Aspergillus nidulans, Assay Type: Mitotic recombination, Assay Code: ASG+, Evaluation Type: Evaluation A (Pre-1980)
  mutagenic call: active; positive
Species/Cell Type: Bacillus subtilis (H17 vs M45), Assay Type: Rec-assay, spot test, DNA effects (bacterial DNA repair), Assay Code: REW+, Evaluation Type: Evaluation A (Pre-1980)
  mutagenic call: active; positive
Species/Cell Type: Chinese hamster lung (V79) cells, Assay Type: Forward gene mutation at the HPRT or ouabain locus, Assay Code: V79+, Evaluation Type: Evaluation A (Pre-1980)
  mutagenic call: active; positive
Species/Cell Type: Chinese hamster ovary (CHO) cells, Assay Type: Forward gene mutation at the HPRT locus, Assay Code: CHO+, Evaluation Type: Evaluation B (Post-1980)
  mutagenic call: active; positive
Species/Cell Type: Drosophila melanogaster, Assay Type: Sex-linked recessive lethal gene mutation, Assay Code: SRL+, Evaluation Type: Evaluation A (Pre-1980)
  mutagenic call: active; positive
Species/Cell Type: Drosophila melanogaster, Sex: Male, Assay Type: Heritable translocation test, chromosome aberrations, Assay Code: DHTT, Evaluation Type: Evaluation A (Pre-1980)
  mutagenic call: no conclusion
Species/Cell Type: Escherichia coli WP2, Assay Type: Tryptophan reverse gene mutation, Assay Code: WP2+, Evaluation Type: Evaluation A (Pre-1980)
  mutagenic call: active; positive
Species/Cell Type: Escherichia coli WP2 UVRA, Assay Type: Tryptophan reverse gene mutation, Assay Code: WPU+/-*, Activation: With metabolic activation, Evaluation Type: Evaluation A (Pre-1980)
  mutagenic call: inactive; positive without activation, negative with activation
Species/Cell Type: Escherichia coli polA (W3119 vs P3478), Assay Type: Rec-assay, DNA effects (bacterial DNA repair), Assay Code: RE1+, Evaluation Type: Evaluation A (Pre-1980)
  mutagenic call: active; positive
Species/Cell Type: Human diploid fibroblasts, Assay Type: Unscheduled DNA synthesis (UDS) in vitro, DNA effects, Assay Code: UDH-, Evaluation Type: Evaluation A (Pre-1980)
  mutagenic call: inactive; negative
Species/Cell Type: Human lymphocytes, Assay Type: Sister-chromatid exchange (SCE) in vitro, Assay Code: SCL+, Evaluation Type: Evaluation B (Post-1980)
  mutagenic call: active; positive
Species/Cell Type: Human, Assay Type: Sister-chromatid exchange (SCE) in vitro, Assay Code: SC1+, Evaluation Type: Evaluation B (Post-1980)
  mutagenic call: active; positive
[1]
  mutagenic call: active; positive
Species/Cell Type: Mouse, Sex: Male, Assay Type: Heritable translocation test, chromosome aberrations, Assay Code: HTT-, Evaluation Type: Evaluation A (Pre-1980)
  mutagenic call: inactive; negative
Species/Cell Type: Nonhuman, Assay Code: CCG+L, Evaluation Type: Evaluation A (Pre-1980)
  call: active; positive
[2]
  mutagenic call: active; positive
Species/Cell Type: Rodents, Sex: Male, Assay Type: Dominant lethal test, Assay Code: DLT+, Evaluation Type: Evaluation A (Pre-1980)
  mutagenic call: active; positive
[3]
  mutagenic call: active; positive
Species/Cell Type: Saccharomyces cerevisiae, Assay Type: Mitotic recombination or gene conversion, Assay Code: YEH+, Evaluation Type: Evaluation A (Pre-1980)
  mutagenic call: active; positive
[4]
  mutagenic call: active; positive
Species/Cell Type: Salmonella typhimurium, Serratia marcesens, Assay Type: Forward and reverse gene mutation, host-mediated assay, Assay Code: HM2+, Evaluation Type: Evaluation A (Pre-1980)
  mutagenic call: active; positive
Species/Cell Type: Salmonella typhimurium, Assay Type: Forward and reverse gene mutation, body fluid assay, Assay Code: BFU-, Evaluation Type: Evaluation A (Pre-1980)
  mutagenic call: inactive; negative

## CCC1(c2ccc(O)cc2)OC1(CC)c1ccc(O)cc1 (stereo not drawn)
Species/Cell Type: Human, Assay Type: Sister-chromatid exchange (SCE) in vitro, Assay Code: SC1+D, Dose Response: With dose response, Evaluation Type: Evaluation B (Post-1980)
  mutagenic call: active; positive

## CCN(CC)C(=O)OC1(SC)C(=O)c2ccccc2C1=O
Species/Cell Type: Salmonella typhimurium, Assay Type: Forward and reverse gene mutation, host-mediated assay, Assay Code: HMA+, Evaluation Type: Evaluation A (Pre-1980)
  mutagenic call: active; positive

## OC1CCCCC1
Species/Cell Type: Allium cepa, Assay Type: Chromosome aberrations, Assay Code: ALC-, Evaluation Type: Evaluation A (Pre-1980)
  mutagenic call: inactive; negative

## O=[N+]([O-])c1ccc(N=Nc2c(O)ccc3ccccc23)c([N+](=O)[O-])c1
[4]
  mutagenic call: active; positive

## O=P(OCCCl)(OCCCl)OCCCl
[1]
  mutagenic call: active; positive
Species/Cell Type: Salmonella typhimurium (one or more of the five standard strains: TA98, TA100, TA1535, TA1537, and TA1538), Assay Type: Histidine reverse gene mutation, Ames assay, Assay Code: SAL-, Evaluation Type: Evaluation A (Pre-1980)
  mutagenic call: inactive; negative

## CO
Species/Cell Type: Mammalian polychromatic erythrocytes, Assay Type: Micronucleus test, chromosome aberrations, Assay Code: MNTT, Evaluation Type: Evaluation B (Post-1980)
  mutagenic call: no conclusion
Species/Cell Type: Neurospora crassa, Assay Type: Aneuploidy, chromosome aberrations, Assay Code: NEN-, Evaluation Type: Evaluation A (Pre-1980)
  mutagenic call: inactive; negative
Species/Cell Type: Nonhuman, Assay Type: Sister-chromatid exchange (SCE) in vitro, Assay Code: SC2-, Evaluation Type: Evaluation A (Pre-1980)
  mutagenic call: inactive; negative
Species/Cell Type: Syrian hamster embryo (SA7/SHE) cells, Assay Type: Cell transformation, viral enhanced, Assay Code: CT7-, Evaluation Type: Evaluation A (Pre-1980)
  mutagenic call: inactive; negative
Species/Cell Type: Syrian hamster embryo (SHE) cells, Assay Type: Cell transformation, clonal assay, Assay Code: CTC-, Evaluation Type: Evaluation A (Pre-1980)
  mutagenic call: inactive; negative

## CN(C)N=Nc1cccc(O)c1
[5]
  mutagenic call: no conclusion
[3]
  mutagenic call: active; positive

## N/C(=N\O)c1ccc([N+](=O)[O-])o1
[2]
  mutagenic call: active; positive
[4]
  mutagenic call: active; positive

## Cc1c[nH]c(=O)[nH]c1=O
[5]
  mutagenic call: no conclusion
Species/Cell Type: Nonhuman, Assay Type: Sister-chromatid exchange (SCE) in vitro, Assay Code: SC2T, Evaluation Type: Evaluation B (Post-1980)
  mutagenic call: no conclusion

## Oc1cc2cccc3ccc4c5ccccc5cc1c4c32
Species/Cell Type: Chinese hamster lung (V79) cells, Assay Type: Forward gene mutation at the HPRT or ouabain locus, Assay Code: V79-, Evaluation Type: Evaluation A (Pre-1980)
  mutagenic call: inactive; negative
Species/Cell Type: Nonhuman, Assay Code: CCGT, Evaluation Type: Evaluation A (Pre-1980)
  call: no conclusion
Species/Cell Type: Salmonella typhimurium (one or more of the five standard strains: TA98, TA100, TA1535, TA1537, and TA1538), Assay Type: Histidine reverse gene mutation, Ames assay, Assay Code: SALT, Evaluation Type: Evaluation A (Pre-1980)
  mutagenic call: no conclusion
